The results in this text go back to patent US20260250316A1, “CRYSTALLINE FORMS OF A MACROCYCLIC PEPTIDE ANTIBIOTIC” (Hoffmann-La Roche Inc., priority 2022, published 2026).

Molecules are shown by their SMILES.

The nature of data set [1]: physchem. Particulars: water, approximately 1 g equilibrated in 8.5 mL of water at 20° C. for 2 days, centrifuged, uPLC.
Method: Approximately 1 g of substance was equilibrated in 8.5 mL of water at 20° C. for 2 days. 1 mL of suspension was centrifuged. The filtrate was analyzed by uPLC.

Under “approximately 1 g equilibrated in 8.5 mL of water at 20° C. for 2 days, centrifuged, uPLC”, `CN1C(=O)[C@H](CCCCN)NC(=O)[C@H](CCCN)NCc2cccnc2Sc2cccc(-c3ccc(C(=O)O)cc3)c2CNC(=O)[C@@H]1Cc1c[nH]c2ccccc12.Cl` [Amorphous HCl salt, 4-[(11S,14S,17S)-14-(4-Aminobutyl)-11-(3-aminopropyl)-17-(1H-indol-3-ylmethyl)-16-methyl-12,15,18-trioxo-2-thia-4,10,13,16,19-pentazatricyclo[19.4.0.03,8]pentacosa-1(25),3(8),4,6,21,23-hexaen-22-yl]benzoic acid, mono hydrochloric acid salt] gave a Solubility of 177.6 mg/mL.

As to `CN1C(=O)[C@H](CCCCN)NC(=O)[C@H](CCCN)NCc2cccnc2Sc2cccc(-c3ccc(C(=O)O)cc3)c2CNC(=O)[C@@H]1Cc1c[nH]c2ccccc12.Cl` [Form A family HCl salt], the solubility at 2 days in data set [1] was found to be 124 mg/mL.

The compound `CN1C(=O)[C@H](CCCCN)NC(=O)[C@H](CCCN)NCc2cccnc2Sc2cccc(-c3ccc(C(=O)O)cc3)c2CNC(=O)[C@@H]1Cc1c[nH]c2ccccc12` [Form A family free zwitterion] registered a solubility at 2 days in data set [1] of less than 1 mg/mL.

On to `CN1C(=O)[C@H](CCCCN)NC(=O)[C@H](CCCN)NCc2cccnc2Sc2cccc(-c3ccc(C(=O)O)cc3)c2CNC(=O)[C@@H]1Cc1c[nH]c2ccccc12.Cl` [HCl salt, 4-[(11S,14S,17S)-14-(4-Aminobutyl)-11-(3-aminopropyl)-17-(1H-indol-3-ylmethyl)-16-methyl-12,15,18-trioxo-2-thia-4,10,13,16,19-pentazatricyclo[19.4.0.03,8]pentacosa-1(25),3(8),4,6,21,23-hexaen-22-yl]benzoic acid], for which the “Solubility compared to the free base (in words)” value (especially in aqueous media) is “dramatically increased solubility compared to the free base”.

Consider `CN1C(=O)[C@H](CCCCN)NC(=O)[C@H](CCCN)NCc2cccnc2Sc2cccc(-c3ccc(C(=O)O)cc3)c2CNC(=O)[C@@H]1Cc1c[nH]c2ccccc12` [free base, 4-[(11S,14S,17S)-14-(4-Aminobutyl)-11-(3-aminopropyl)-17-(1H-indol-3-ylmethyl)-16-methyl-12,15,18-trioxo-2-thia-4,10,13,16,19-pentazatricyclo[19.4.0.03,8]pentacosa-1(25),3(8),4,6,21,23-hexaen-22-yl]benzoic acid], for which the “Solubility in water (in words)” value (water) is recorded as “hardly soluble in water”.

The Solubility is the dissolved amount per volume that the medium holds. High values mean much dissolved substance, low ones little dissolved substance. For orientation: solubility means how much of the substance goes into solution per volume.
